Converted amounts (≈) assume the structure as drawn.
What was measured:
[1] = tested on: human platelets in platelet-rich-plasma; test: ADP-induced aggregation of human platelets in platelet-rich plasma (Born aggregometer method as modified by Mustard et al.); type: cell-based
Description: Platelet-rich plasma was prepared from human blood drain into syringes containing 1/10 volume of 3.8% sodium citrate. The blood was then subjected to centrifugation for about 10 minutes at 140 g and then the platelet-rich plasma decanted. The test compound was dissolved in DMSO (5 μL) and added to PRP (0.9 mL) 3 minutes prior to the addition of ADP (5.86 μM). The aggregometer method of Born, as modified by Mustard et al., was employed to measure platelet aggregation. Vehicle control trials were performed and compared with the extent of aggregation induced in PRP containing various concentrations of the test compounds. Dose-response curves were thus obtained and IC50 values determined.

human PRP = conditions: cited from earlier work
platelet aggregation = conditions: prior art description; cited from earlier work

## CCOC(=O)N(Cc1nc(-c2ccccc2)c(-c2ccccc2)o1)c1cccc(OCC(=O)O)c1 [Compound 13d, [3-[[(4,5-diphenyl-2-oxazolyl)methyl](ethoxycarbonyl)amino]phenoxy]acetic acid]
[1]
  potency relative to the compound of Formula (ii) (inhibition of ADP-induced platelet aggregation): four times as potent

## O=C(O)CCCCCCCOc1nc(-c2ccccc2)c(-c2ccccc2)n1-c1ccccc1 [Octimibate]
Human PRP
  IC50 (human PRP vs ADP): 1 µg/mL (≈ 2.2 µM)
Platelet aggregation
  inhibition of platelet aggregation (in words): broad spectrum inhibitor of platelet aggregation

## O=C(O)CCCCCCCOc1nc(-c2ccccc2)c(-c2ccccc2)n1-c1ccccc1 [octimibate sodium]
Platelet aggregation
  inhibition of platelet aggregation (in words): possessing anti-aggregatory activity

Reference: US5362879A, “4-5-diphenyloxazole derivatives as inhibitors of blood platelet aggregation” (Bristol-Myers Squibb Company, priority 1993, dated 1994)
